Assay results as given in patent US6498176B1, “3-(anilinomethylene) oxindoles as protein tyrosine kinase and protein serine/threonine kinase inhibitors” (SmithKlineBeecham Corporation, priority 1999, dated 2002).

Legend:
[1] = system: human umbilical vein endothelial cells (HUVECs); assay: HUVEC BrdU incorporation, VEGF stimulation; type: cell-based; conditions: 20 ng/ml VEGF, 72 hrs; read-out: Inhibition of BrdU incorporation in HUVEC cells, VEGF stimulation (IC50)
From the text: (§1) An assay to measure this effect involves measurement of the inhibition of bromo-deoxy uridine (BrdU) incorporation (evidence of DNA synthesis) in human umbilical vein endothelial cells (HUVECs).
(§2) HUVEC cells and EGM (Endothelial cell growth medium) were purchased from Clonetics (San Diego, Calif.). VEGF and bFGF were purchased from Genzyme. M199 medium (Gibco BRL) with BSA (Sigma) was used for cell culture in Type I collagen coated plates (Becton Dickinson). The degree of BrdU incorporation was measured using a commercial colorimetric ELISA assay from Boehringer Mannheim.
(§3) HUVECs were plated at a density of 2500 cells per well in M199 medium containing 5% FBS (Hyclone) in a Type-I Collagen coated plate. The plate was incubated at 37° C. overnight. The medium was removed by aspiration, and test compounds were added to each well in a volume of 0.1 ml per well in serum-free M199 medium. […] The plate was incubated for 30 min at 37° C. Another 0.1 ml of serum-free M199 medium containing BSA and VEGF (or bFGF) was added to give a final concentration of 0.1% BSA and 20 ng/ml VEGF (0.3 ng/ml bFGF). The plate was incubated at 37° C. for 72 hrs. BrdU was added to each well after the first 48 hrs to give a concentration of 10 micomolar. The calorimetric ELISA assay was performed according to manufacturer's instructions, with detection by absorbance reading at 450 nm.

[2] = molecular target: T1, c-fms intracellular domain (Homo sapiens, UniProt P07333); assay: c-fms protein kinase assay; type: biochemical; conditions: 1.7 μM ATP, 90 min at room temperature; read-out: Kinase inhibition c-fms (IC50)
T1 construct: The c-fms intracellular domain was expressed from a baculovirus expression system, as an amino-terminal GST fusion protein; GST (N); made in house; host or cells: baculovirus expression system
T1 sequence (P07333 539-972 limits assumed): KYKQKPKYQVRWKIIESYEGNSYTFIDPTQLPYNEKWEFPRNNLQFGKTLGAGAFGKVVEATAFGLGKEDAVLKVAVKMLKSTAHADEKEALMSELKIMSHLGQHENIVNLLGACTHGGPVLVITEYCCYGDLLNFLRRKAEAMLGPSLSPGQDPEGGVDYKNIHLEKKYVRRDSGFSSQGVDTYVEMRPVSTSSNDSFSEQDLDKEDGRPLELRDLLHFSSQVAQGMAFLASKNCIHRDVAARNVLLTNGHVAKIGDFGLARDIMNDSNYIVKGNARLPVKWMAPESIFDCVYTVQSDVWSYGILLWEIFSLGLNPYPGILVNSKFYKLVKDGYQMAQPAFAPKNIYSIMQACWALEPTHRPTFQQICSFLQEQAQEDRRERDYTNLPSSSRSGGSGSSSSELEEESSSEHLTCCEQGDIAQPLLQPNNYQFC
Experimental: c-fms protein kinase assays utilized the peptide substrate, biotin-[…]-NH2, as the phosphoryl group acceptor. The c-fms intracellular domain was expressed from a baculovirus expression system, as an amino-terminal GST fusion protein, and purified to homogeneity using Glutathione agarose from Sigma Chemical Co. Maximum activation of the enzyme was achieved by preactivation at room temperature for 120 min in the presence of 100 μM ATP and 15 mM MgCl2, This enzyme stock was diluted to 150 nM prior to using in the assay. Typically assays were performed in white, opaque, 96-well plates in a 45 ul assay volume including 15 ul 6% DMSO, with or without compounds, 15 ul of the preactivated, diluted enzyme, and 15 ul of a substrate mixture. Reactions contained 50 mM HEPES, pH 7.5, 1.7 μM ATP, 15 mM MgCl2, 3 μM peptide, 2.5 mM DTT, 50 mM NaCl and 0.15 uCi/assay [^32P]ATP. The controls were reactions in the presence (negative controls) or absence (positive controls) of 50 mM EDTA. Reactions were allowed to proceed for 90 min at room temperature. The reaction products were quantified using Scintillation Proximity technolgy. […] Plates were sealed and counted in a Packard Topcount scintillation counter. […]

[3] = system: human umbilical vein endothelial cells (HUVECs); assay: HUVEC BrdU incorporation, bFGF stimulation; type: cell-based; conditions: 0.3 ng/ml bFGF, 72 hrs; read-out: Inhibition of BrdU incorporation in HUVEC cells, BFGF Stimulation (IC50)
From the text: as §1, §2, §3

Compound: O=C1Nc2ccc3ncccc3c2/C1=C/Nc1ccc(CCO)cc1 [Example 32]
- IC50 [1]: 10 to 500 nM
- IC50 [2]: > 100 nM
- IC50 [3]: 1100 to 5000 nM
